ChEMBL document CHEMBL1201862, “PubChem BioAssay data set” (2004)
Blank lines part the entries; values can stand above or below the compound they belong to. Activity calls are given as the source filed them.

Columns and labels:
Mucolipin-3 = Mucolipin-3 (Homo sapiens, UniProt Q8TDD5); assay: Fluorescence counterscreen assay for […] agonists: dose response cell-based high-throughput screening assay to identify agonists of the transient receptor potential channel ML3 (TRPML3). [Related pubchem assays: 1424, 1448 ]; format: functional
Ion channel NompC = Ion channel NompC (Danio rerio, UniProt Q7T1G6); assay: Dose response cell-based high-throughput screening assay for agonists of the transient receptor potential channel N1 (TRPN1). [Related pubchem assays (depositor defined):AID1424, AID1448]; format: functional
[1] = biological target: T1, Corticotropin-releasing factor receptor 2/Corticotropin-releasing factor-binding protein (Homo sapiens, UniProt P24387+Q13324); assay: activators of CRF receptor 2 with binding protein – uHTS hits, confirmation (AID 602473); format: functional; conditions: read-out: EC50_Mean
T1 sequence (Q13324 whole entry): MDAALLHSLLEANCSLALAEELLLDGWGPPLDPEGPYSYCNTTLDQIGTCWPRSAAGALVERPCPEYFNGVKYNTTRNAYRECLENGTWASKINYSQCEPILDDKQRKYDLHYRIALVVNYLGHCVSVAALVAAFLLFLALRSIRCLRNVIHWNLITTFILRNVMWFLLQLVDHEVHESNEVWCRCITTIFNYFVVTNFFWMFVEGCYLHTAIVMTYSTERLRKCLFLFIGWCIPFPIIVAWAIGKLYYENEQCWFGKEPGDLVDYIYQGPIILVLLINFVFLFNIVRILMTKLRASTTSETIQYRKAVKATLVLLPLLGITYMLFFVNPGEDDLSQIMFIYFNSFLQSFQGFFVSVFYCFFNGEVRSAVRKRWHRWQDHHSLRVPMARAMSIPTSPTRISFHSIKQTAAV
T1 sequence (P24387 whole entry): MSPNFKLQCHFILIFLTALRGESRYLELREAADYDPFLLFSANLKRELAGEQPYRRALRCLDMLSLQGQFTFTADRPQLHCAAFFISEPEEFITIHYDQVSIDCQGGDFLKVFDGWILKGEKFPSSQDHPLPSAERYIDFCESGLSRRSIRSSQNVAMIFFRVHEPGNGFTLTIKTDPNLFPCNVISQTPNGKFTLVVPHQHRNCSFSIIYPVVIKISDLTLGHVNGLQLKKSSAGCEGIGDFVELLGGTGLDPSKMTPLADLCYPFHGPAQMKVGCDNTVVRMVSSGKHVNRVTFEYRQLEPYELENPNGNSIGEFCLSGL

[2] = biological target: T2, Runt-related transcription factor 1/Core-binding factor subunit beta (Homo sapiens, UniProt Q01196+Q13951); assay: disruptors of Runt domain/CBFb-SMMHC interaction – biochemical, FRET, Cerulean-Runt, Venus-CBFb-SMMHC, uHTS, […] (AID 1434); format: protein assay
[3] = biological target: T2, Runt-related transcription factor 1/Core-binding factor subunit beta; assay: Runt domain/CBFb-SMMHC interaction disruptors – biochemical, TR-FRET (AID 1438); format: protein assay
[4] = biological target: T3, Kappa-type opioid receptor (Homo sapiens, UniProt P41145); assay: SAR analysis of small molecule antagonists of the kappa opioid receptor via a luminescent beta-arrestin assay - Set 5. [Related pubchem assays (depositor defined):AID1778, AID1785]; format: functional
[5] = biological target: T3, Kappa-type opioid receptor; assay: SAR analysis of small molecule antagonists of the kappa opioid receptor via a luminescent beta-arrestin assay - Set 4. [Related pubchem assays (depositor defined):AID1777, AID1778, AID1785, AID1786, AID1966, AID2133, AID2136, AID2285]; format: functional
HEK293 = assay: SAR analysis of compounds that are cytotoxic to HEK293 - Set 3. [Related pubchem assays (depositor defined):AID1575, AID1578, AID1848, AID1849, AID2001, AID2333, AID2334, AID2335, AID2337, AID2469]; format: functional, cell-based; conditions: Homo sapiens
[6] = biological target: Nucleotide-binding oligomerization domain-containing protein 1 (Homo sapiens, UniProt Q9Y239); assay: SAR analysis of compounds that inhibit NOD1 - Set 3. [Related pubchem assays (depositor defined):AID1566, AID1575, AID1578, AID1849, AID1852, AID2333, AID2335, AID2466]; format: functional
[7] = biological target: Nucleotide-binding oligomerization domain-containing protein 2 (Homo sapiens, UniProt Q9HC29); assay: inhibition of MDP-driven NOD2 NF-kB reporter – cell-based, set 3, SAR follow-up (AID 2799); format: functional
Tumor necrosis factor = Tumor necrosis factor (Homo sapiens, UniProt P01375); assay: analog potency on TNFa NF-kB signaling – cell-based, set 3, SAR follow-up (AID 2801); format: functional
[8] = biological target: Signal transducer and activator of transcription 3 (Homo sapiens, UniProt P40763); assay: STAT3 blockade with qPCR and toxicity readouts – cell-based, STAT1 panel, cytotoxicity, late-stage follow-up, panel member STAT3 Inhibition (AID 2078)
[9] = biological target: Signal transducer and activator of transcription 1-alpha/beta (Homo sapiens, UniProt P42224); assay: STAT3 blockade with qPCR and toxicity readouts – cell-based, STAT1 panel, cytotoxicity, late-stage follow-up, panel member STAT1 Inhibition (AID 2078)
Sequence of Signal transducer and activator of transcription 1-alpha/beta (P42224 whole entry): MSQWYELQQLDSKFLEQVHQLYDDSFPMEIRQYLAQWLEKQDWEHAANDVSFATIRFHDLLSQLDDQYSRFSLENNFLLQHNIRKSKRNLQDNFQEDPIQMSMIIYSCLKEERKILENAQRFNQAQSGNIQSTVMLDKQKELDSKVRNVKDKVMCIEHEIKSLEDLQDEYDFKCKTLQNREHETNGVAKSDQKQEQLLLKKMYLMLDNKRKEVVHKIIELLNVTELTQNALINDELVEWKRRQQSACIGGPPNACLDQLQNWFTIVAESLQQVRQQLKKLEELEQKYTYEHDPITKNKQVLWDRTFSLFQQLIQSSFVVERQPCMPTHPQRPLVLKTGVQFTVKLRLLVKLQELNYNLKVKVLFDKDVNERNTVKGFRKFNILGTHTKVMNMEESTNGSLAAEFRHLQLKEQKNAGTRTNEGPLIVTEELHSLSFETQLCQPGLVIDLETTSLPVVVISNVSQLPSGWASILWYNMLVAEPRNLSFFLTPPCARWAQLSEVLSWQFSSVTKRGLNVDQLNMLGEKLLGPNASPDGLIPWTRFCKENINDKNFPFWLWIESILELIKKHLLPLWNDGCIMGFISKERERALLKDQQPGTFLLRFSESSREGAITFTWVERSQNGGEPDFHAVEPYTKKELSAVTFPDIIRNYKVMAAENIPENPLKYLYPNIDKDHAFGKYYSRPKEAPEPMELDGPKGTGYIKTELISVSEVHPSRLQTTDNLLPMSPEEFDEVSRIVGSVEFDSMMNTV

T3 sequence (P41145 whole entry): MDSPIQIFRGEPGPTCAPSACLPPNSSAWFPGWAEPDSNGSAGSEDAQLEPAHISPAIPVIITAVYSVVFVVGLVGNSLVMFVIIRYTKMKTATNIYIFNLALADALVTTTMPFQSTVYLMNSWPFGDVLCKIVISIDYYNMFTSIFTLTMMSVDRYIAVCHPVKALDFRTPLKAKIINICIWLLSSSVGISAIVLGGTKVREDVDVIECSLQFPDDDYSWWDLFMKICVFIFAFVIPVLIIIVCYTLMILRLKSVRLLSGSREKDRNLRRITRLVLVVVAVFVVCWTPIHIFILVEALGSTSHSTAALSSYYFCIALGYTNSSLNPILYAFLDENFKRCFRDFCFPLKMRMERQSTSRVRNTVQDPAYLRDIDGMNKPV
T2 sequence (Q01196 whole entry, the tested form may be a part): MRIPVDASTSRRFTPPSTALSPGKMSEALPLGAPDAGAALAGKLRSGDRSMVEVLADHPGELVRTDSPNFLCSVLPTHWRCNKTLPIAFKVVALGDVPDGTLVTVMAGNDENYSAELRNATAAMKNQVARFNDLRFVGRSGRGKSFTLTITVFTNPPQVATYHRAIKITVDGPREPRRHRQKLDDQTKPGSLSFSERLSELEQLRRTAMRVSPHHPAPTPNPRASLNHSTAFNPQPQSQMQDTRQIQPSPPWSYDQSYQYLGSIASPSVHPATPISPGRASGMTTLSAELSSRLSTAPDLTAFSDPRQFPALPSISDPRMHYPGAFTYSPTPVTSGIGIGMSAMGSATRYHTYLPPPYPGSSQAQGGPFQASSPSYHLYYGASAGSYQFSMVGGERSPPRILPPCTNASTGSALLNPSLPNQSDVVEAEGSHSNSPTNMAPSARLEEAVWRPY
T2 sequence (Q13951 whole entry, the tested form may be a part): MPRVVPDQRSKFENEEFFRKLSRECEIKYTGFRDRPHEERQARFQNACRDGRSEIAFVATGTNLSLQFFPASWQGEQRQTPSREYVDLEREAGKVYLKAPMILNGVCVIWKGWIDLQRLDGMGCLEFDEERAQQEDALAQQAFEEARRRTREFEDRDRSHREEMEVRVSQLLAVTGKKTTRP
Sequence of Signal transducer and activator of transcription 3 (P40763 whole entry): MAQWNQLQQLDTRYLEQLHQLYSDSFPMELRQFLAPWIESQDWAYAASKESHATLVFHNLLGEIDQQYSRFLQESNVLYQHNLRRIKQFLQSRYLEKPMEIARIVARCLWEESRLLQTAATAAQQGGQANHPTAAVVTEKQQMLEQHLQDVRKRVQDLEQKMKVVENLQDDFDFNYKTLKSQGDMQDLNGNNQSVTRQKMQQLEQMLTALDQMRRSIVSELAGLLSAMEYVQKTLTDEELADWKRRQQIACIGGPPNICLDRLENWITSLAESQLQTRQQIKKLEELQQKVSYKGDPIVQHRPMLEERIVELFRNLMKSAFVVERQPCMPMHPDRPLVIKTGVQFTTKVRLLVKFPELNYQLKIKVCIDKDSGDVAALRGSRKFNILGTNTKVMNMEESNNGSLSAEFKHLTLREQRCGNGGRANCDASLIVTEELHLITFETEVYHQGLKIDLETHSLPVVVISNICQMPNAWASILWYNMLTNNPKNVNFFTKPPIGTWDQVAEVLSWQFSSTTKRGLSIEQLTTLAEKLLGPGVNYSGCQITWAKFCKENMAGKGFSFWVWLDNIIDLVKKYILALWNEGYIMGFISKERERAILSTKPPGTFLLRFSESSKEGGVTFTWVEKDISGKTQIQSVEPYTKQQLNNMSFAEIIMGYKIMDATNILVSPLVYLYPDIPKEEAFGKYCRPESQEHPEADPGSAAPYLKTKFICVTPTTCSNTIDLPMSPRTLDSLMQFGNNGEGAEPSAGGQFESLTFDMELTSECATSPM
Sequence of Ion channel NompC (Q7T1G6 whole entry): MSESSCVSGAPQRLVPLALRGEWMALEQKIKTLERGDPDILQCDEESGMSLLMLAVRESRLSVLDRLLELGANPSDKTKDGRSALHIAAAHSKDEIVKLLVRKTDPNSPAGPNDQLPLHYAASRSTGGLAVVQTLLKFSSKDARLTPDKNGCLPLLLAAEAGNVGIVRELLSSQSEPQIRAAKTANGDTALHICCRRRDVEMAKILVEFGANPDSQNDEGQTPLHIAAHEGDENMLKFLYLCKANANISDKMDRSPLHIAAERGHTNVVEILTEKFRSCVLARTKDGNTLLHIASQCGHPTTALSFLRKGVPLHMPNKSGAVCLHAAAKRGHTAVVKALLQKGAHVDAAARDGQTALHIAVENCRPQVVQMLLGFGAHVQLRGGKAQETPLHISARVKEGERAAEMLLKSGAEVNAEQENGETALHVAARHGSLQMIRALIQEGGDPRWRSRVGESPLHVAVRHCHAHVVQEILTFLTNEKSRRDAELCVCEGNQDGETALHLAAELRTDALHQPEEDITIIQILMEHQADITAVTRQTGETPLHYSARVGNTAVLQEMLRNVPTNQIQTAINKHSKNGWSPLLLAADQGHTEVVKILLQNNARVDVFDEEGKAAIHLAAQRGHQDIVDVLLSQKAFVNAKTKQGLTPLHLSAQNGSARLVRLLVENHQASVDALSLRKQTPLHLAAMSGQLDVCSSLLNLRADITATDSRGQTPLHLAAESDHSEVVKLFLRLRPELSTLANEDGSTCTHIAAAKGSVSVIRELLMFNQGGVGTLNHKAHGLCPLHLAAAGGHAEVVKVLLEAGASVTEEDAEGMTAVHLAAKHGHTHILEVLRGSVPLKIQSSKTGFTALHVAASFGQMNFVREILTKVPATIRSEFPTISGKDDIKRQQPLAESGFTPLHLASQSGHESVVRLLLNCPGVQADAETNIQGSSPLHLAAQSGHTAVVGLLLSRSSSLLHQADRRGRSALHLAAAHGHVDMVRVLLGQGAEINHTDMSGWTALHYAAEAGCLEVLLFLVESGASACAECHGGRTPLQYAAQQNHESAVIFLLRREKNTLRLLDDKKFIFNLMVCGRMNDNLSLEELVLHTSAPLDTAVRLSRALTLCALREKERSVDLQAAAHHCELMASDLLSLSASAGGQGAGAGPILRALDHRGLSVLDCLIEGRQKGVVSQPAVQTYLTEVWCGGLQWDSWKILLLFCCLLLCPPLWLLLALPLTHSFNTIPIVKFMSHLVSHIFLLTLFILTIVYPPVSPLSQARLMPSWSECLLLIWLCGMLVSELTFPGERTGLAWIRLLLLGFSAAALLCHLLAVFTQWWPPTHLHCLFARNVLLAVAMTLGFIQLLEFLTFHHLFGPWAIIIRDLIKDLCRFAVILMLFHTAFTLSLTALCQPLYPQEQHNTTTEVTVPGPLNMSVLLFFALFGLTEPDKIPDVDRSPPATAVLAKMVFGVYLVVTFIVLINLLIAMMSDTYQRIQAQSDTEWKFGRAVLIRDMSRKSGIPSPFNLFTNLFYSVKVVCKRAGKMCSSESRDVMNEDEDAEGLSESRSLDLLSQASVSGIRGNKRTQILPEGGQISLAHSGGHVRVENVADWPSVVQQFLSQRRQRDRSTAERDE
Sequence of Mucolipin-3 (Q8TDD5 whole entry): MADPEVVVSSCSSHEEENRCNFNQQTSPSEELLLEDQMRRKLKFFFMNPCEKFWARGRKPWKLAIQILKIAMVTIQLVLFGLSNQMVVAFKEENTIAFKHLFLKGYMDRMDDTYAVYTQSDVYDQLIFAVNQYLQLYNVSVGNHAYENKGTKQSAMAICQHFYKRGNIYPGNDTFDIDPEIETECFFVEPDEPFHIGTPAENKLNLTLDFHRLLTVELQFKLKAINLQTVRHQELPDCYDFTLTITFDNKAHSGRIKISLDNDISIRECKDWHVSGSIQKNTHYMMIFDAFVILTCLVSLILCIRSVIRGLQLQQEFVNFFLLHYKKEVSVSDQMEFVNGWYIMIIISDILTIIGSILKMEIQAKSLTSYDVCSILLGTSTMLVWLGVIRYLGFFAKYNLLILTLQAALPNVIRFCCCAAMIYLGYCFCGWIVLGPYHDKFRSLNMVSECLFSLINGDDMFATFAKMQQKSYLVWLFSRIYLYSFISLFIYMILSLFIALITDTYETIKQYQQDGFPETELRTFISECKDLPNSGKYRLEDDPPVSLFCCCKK
Sequence of Tumor necrosis factor (P01375 whole entry): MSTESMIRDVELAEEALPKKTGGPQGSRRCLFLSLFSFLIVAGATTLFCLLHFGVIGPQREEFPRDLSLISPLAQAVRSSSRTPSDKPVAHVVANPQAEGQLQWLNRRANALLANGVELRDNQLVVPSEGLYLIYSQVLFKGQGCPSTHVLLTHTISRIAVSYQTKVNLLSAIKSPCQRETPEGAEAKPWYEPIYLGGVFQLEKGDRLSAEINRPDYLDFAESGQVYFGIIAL

- EC50 (Mucolipin-3): 5.42 µM (active)
- EC50 (Ion channel NompC): 5.32 µM (active)
- EC50 [1]: 15.1 µM (active)
SMILES: COc1cccc(CN2CCN(Cc3cc4ccccc4[nH]3)CC2CCO)c1 (stereo not drawn)

SMILES: Cc1cc(O)ccc1Nc1nc2ccccc2nc1Nc1ccc(O)cc1C
- IC50 [2]: 9.73 µM (active)
- IC50 [3]: 7.08 µM (active)

- IC50 [4]: 1.36 µM (active)
- IC50 [5]: 3.54 µM (active)
SMILES: CC(C)N(CCNC(=O)c1ccc(CNS(=O)(=O)c2ccc(C#N)cc2)cc1)Cc1ccccc1

SMILES: CC(C)c1ccc(S(=O)(=O)n2c(N)nc3ccccc32)cc1
- IC50 (HEK293): > 20 µM (inactive)
- IC50 [6]: 0.495 µM (active)
- IC50 [7]: > 20 µM (inactive)
- IC50 (Tumor necrosis factor): > 20 µM (inactive)

SMILES: c1ccc(CC2CCN(c3ncnc4sc(-c5ccccc5)cc34)CC2)cc1
- IC50 [8]: > 55.7 µM (inactive)
- IC50 [9]: > 55.7 µM (inactive)
